Test results reported in patent US8460669B2, “Compositions and methods for identifying response targets and treating flavivirus infection responses” (Academia Sinica, priority 2005, dated 2013).

Columns and labels:
Conditions in all cases: sugar 1 mg/ml
DC-SIGN = molecular target: T1, DC-SIGN (Homo sapiens, UniProt Q9NNX6); experiment: Sugar competition EIA, Fc.DC-SIGN binding to GLPS-F3
T1 construct: The extracellular domains of lectin receptors, TREMs and TLTs were cloned by the reverse-transcriptase polymerase chain reaction (RT-PCR); made in house; host or cells: 293-F (FreeStyle 293) cells
T1 sequence (Q9NNX6 59-404 limits assumed): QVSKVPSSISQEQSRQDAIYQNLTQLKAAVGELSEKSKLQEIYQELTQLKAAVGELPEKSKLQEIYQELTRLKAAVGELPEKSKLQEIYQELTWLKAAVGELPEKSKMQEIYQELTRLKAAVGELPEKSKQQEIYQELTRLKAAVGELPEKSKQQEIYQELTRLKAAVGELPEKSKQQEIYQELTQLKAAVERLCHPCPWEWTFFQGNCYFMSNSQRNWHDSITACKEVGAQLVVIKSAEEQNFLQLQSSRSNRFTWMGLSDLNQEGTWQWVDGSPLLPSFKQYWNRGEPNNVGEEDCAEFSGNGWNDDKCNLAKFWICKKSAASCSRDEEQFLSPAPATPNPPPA
Procedure: (§1) The interaction between GLPS-F3 and receptor.Fc was then tested. Unbiotinylated GLPS-F3 was immobilized at 100 ng/well as described above, and 100 μL receptor.Fc fusion protein (1 μg/ml in 2 mM MgCl2/2 mM CaCl2/1% BSA/TBST) was added into each well and incubated for 1 hour at room temperature. After washing with TBST, wells were incubated with peroxidase-conjugated goat anti-human IgG Ab (1:5000 dilution, Jackson ImmunoResearch Laboratories) in blocking buffer at room temperature for 30 min. Wells were incubated with 100 μL TMB substrate for 15 min after TBST washing and read at 450 nm in a Fusion plate reader (Perkin Elmer). The results were normalized with respect to Fc.Dectin-1 binding (Dectin-1 is a known lectin receptor that binds to β-1,3-glucan which is the backbone found in GLPS-F3). FIG. 6B depicts in graphical form the affinity of each receptor for GLPS-F3 relative to Dectin-1. […] There was also weaker but positive GLPS-F3 binding ability (25-50% binding intensity compared to Fc.dectin-1) found in Fc.NKG2D, Fc.MINCLE, Fc.mKCR, DCAL1.Fc, DEC205.Fc, Endo180.Fc and NKp30(NCR3).Fc.
(§2) To understand the interaction of GLPS-F3 with specific innate immunity receptors, the polysaccharides mannan and β-glucan and the monosaccharides D-mannose (Man), D-glucose (Glc), N-acetyl-glucosamine (GlcNAc), D-galactose (Gal), N-acetyl-galactosamine (GalNAc), L-fucose (Fuc) and sialic acid, were used in a competition assay. […] The assays were carried out as in Example 9, with the addition of 1 mg/ml of each polysaccharide or monosaccharide.

CLEC-2 = molecular target: T2, CLEC-2 (Homo sapiens, UniProt Q9P126); experiment: Sugar competition EIA, Fc.CLEC-2 binding to GLPS-F3
T2 construct: The extracellular domains of lectin receptors, TREMs and TLTs were cloned by the reverse-transcriptase polymerase chain reaction (RT-PCR); made in house; host or cells: 293-F (FreeStyle 293) cells
Procedure: as §1, §2

Dectin-1 = molecular target: T3, Dectin-1 (Homo sapiens, UniProt Q9BXN2); experiment: Sugar competition EIA, Fc.Dectin-1 binding to GLPS-F3
T3 construct: The extracellular domains of lectin receptors, TREMs and TLTs were cloned by the reverse-transcriptase polymerase chain reaction (RT-PCR); made in house; host or cells: 293-F (FreeStyle 293) cells
T3 sequence (Q9BXN2 66-247 limits assumed): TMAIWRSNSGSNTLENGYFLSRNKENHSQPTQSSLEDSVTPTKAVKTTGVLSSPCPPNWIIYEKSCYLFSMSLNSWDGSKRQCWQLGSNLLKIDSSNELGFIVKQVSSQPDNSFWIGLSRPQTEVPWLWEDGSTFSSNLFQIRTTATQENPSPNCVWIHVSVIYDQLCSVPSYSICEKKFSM
Procedure: as §1, §2

Langerin = molecular target: T4, Langerin (Homo sapiens, UniProt Q9UJ71); experiment: Sugar competition EIA, Fc.Langerin binding to GLPS-F3
T4 construct: The extracellular domains of lectin receptors, TREMs and TLTs were cloned by the reverse-transcriptase polymerase chain reaction (RT-PCR); made in house; host or cells: 293-F (FreeStyle 293) cells
Procedure: as §1, §2

MMR.Fc = molecular target: T5, MMR.Fc (Homo sapiens, UniProt P22897); experiment: Sugar competition EIA, MMR.Fc binding to GLPS-F3
T5 construct: The extracellular domains of lectin receptors, TREMs and TLTs were cloned by the reverse-transcriptase polymerase chain reaction (RT-PCR); made in house; host or cells: 293-F (FreeStyle 293) cells
T5 sequence (P22897 19-1389 limits assumed): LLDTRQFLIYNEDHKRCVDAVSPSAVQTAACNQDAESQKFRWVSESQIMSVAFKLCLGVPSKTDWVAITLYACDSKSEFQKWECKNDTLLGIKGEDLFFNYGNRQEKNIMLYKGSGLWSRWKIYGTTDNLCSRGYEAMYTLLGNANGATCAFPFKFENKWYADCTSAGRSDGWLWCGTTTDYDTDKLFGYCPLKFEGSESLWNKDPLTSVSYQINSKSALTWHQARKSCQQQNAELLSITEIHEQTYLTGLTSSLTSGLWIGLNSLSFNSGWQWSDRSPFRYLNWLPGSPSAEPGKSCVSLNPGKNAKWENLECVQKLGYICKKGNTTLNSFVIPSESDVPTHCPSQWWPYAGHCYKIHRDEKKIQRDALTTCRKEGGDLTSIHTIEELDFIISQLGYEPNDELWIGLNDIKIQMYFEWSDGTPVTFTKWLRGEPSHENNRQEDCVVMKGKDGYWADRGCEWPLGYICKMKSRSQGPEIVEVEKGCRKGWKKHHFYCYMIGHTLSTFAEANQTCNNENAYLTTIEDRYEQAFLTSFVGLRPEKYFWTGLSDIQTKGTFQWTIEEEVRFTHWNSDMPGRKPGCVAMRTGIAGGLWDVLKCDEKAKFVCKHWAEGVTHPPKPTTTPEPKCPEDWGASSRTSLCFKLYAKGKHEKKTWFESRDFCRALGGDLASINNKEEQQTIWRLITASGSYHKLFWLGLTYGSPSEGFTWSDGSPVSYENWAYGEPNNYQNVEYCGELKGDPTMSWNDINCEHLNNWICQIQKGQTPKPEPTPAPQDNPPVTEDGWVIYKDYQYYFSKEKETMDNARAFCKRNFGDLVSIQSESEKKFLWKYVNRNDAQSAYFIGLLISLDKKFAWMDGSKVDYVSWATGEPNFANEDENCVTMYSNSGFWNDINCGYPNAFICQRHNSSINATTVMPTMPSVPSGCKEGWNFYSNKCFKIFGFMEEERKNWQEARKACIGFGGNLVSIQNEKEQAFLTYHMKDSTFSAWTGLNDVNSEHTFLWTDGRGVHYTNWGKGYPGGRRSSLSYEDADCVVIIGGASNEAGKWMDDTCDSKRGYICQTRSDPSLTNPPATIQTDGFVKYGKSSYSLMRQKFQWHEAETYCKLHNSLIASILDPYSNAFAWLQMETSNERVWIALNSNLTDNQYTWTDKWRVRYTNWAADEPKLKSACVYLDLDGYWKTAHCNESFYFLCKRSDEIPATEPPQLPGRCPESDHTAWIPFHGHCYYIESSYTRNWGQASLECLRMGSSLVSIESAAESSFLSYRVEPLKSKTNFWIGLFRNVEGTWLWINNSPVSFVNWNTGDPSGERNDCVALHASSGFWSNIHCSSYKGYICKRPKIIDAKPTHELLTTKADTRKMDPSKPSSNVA
Procedure: as §1, §2

T2 sequence (Q9P126 55-229 limits assumed): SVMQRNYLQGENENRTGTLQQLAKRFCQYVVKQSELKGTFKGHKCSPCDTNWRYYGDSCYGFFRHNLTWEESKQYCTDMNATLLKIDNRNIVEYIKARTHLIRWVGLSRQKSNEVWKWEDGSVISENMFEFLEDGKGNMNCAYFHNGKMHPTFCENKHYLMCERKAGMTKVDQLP
T4 sequence (Q9UJ71 65-328 limits assumed): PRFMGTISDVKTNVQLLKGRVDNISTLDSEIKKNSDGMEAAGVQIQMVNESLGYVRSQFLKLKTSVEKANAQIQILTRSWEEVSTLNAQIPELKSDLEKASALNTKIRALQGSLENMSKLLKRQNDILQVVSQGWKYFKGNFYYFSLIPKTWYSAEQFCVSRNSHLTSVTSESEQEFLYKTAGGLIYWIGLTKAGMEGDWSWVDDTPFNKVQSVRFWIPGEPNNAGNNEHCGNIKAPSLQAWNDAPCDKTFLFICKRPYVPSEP

Molecule	Percentage of binding of DC-SIGN Fc fusion to GLPS-F3 relative to binding in absence of sugar competitor (DC-SIGN) [%]	inhibition of binding of Fc.DC-SIGN to GLPS-F3 (DC-SIGN) [%]	Percentage of binding of CLEC-2 Fc fusion to GLPS-F3 relative to binding in absence of sugar competitor (CLEC-2) [%]	Percentage of binding of Dectin-1 Fc fusion to GLPS-F3 relative to binding in absence of sugar competitor (Dectin-1) [%]	Percentage of binding of Langerin Fc fusion to GLPS-F3 relative to binding in absence of sugar competitor (Langerin) [%]	Percentage of binding of MMR.Fc to GLPS-F3 relative to binding in absence of sugar competitor (MMR.Fc) [%]	inhibition of interaction between GLPS-F3 and MMR.Fc (MMR.Fc) [%]	inhibition of interaction between Fc.Langerin and GLPS-F3 (Langerin) [%]	inhibition of interaction between GLPS-F3 and Fc.Dectin-1 (Dectin-1) [%]
C[C@H](O)[C@@H](O)[C@@H](O)[C@H](O)C=O [Fuc, L-fucose]	8 ± 1.8	92	91 ± 8.5	92 ± 5.2	76 ± 1.9	12 ± 2.0	88	–	–
mannan	2 ± 0.5	98	88 ± 6.3	82 ± 0.2	5 ± 0.9	2 ± 0.5	98	95	–
β-1,3-glucan [b-glucan]	81 ± 1.4	–	95 ± 5.1	42 ± 0.3	77 ± 3.2	100 ± 4.2	–	–	58
